Patent publication US20240116985A1, “STAPLED PEPTIDES AND METHODS THEREOF” (priority 2020, published 2024)
Like-named read-outs stand apart in the source and are kept apart here.

Legend:
CHI Log D procedure = type: physicochemical
[1] = target: T1, full-length beta-Catenin (Uniprot ID P35222) (Homo sapiens, UniProt P35222); experiment: Fluorescence polarization IC50 (beta-catenin / 5FAM-TCF4 10-53 competition); type: binding
T1 construct: 10 nM full-length beta-Catenin (Uniprot ID P35222)
T1 sequence (P35222 1-781): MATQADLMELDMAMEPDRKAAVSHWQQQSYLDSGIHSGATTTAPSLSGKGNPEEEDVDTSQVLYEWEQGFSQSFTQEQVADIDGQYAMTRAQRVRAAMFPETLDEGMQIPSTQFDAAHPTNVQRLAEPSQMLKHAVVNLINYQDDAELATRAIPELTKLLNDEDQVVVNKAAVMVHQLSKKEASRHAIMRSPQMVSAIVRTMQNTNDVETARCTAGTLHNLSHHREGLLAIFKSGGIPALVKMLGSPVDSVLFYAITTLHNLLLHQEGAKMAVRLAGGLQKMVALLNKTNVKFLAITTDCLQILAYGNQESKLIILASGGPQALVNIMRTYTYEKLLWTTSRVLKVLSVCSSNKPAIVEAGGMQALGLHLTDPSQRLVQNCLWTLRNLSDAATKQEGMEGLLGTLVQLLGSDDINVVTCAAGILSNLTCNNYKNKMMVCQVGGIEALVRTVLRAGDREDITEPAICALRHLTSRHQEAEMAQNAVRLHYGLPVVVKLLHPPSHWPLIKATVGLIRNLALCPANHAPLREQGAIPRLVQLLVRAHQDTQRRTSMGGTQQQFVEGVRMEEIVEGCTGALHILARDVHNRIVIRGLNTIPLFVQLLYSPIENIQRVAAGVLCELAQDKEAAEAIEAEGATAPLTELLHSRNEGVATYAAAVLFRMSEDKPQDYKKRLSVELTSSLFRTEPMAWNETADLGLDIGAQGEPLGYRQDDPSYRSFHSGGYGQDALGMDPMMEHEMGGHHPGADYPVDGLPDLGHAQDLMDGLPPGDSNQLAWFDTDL

[2] = fluorescence polarization, read-out: beta-Catenin FP IC50

Structure (SMILES)	CHI Log D (CHI Log D procedure; pH 7.4)	IC50 ([1]; read-out: FP EC50) [nM]	IC50 [1, 2] [nM]	chromatographic logD (CHI Log D procedure; pH 7.4, CHI Log D)	further results
CC[C@H](C)[C@@H]1NC(=O)[C@H](CC(=O)O)NC(=O)[C@]2(CC=CCCCC3(CCCC=CCCCCCC[C@@](C)(C(=O)N[C@@H](Cc4ccccc4)C(=O)N[C@@H](Cc4csc5ccccc45)C(=O)N[C@@H](CCC(N)=O)C(=O)N[C@@H](CCCCNC(=O)CN=[N+]=[N-])C(N)=O)NC(=O)[C@H](CCC(N)=O)NC(=O)[C@H](Cc4ccccc4)NC(=O)[C@H](C)NC(=O)[C@H](C)NC(=O)[C@H](CCC(=O)O)NC(=O)[C@H](CC(=O)O)NC3=O)NC1=O)CCCN2C(C)=O (stereo partly drawn) [I-596, Ac-PL3-Asp-Ile-B5-Asp-Glu-Ala-Ala-Phe-Gln-S8-Phe-BztA-Gln-[AzAc]Lys-NH2]	2.373	112	–	–	–
CC[C@H](C)[C@@H]1NC(=O)[C@H](CC(=O)O)NC(=O)[C@]2(CC=CCCCC3(CCCC=CCCCCCC[C@@](C)(C(=O)N[C@@H](Cc4ccccc4)C(=O)N[C@@H](Cc4csc5ccccc45)C(=O)N[C@@H](CCC(N)=O)C(=O)N[C@@H](CCCCNC(=O)CN=[N+]=[N-])C(N)=O)NC(=O)[C@H](CCC(N)=O)NC(=O)[C@H](Cc4ccccc4)NC(=O)[C@H](C)NC(=O)[C@H](C)NC(=O)[C@H](CCC(=O)O)NC(=O)[C@H](CC(=O)O)NC3=O)NC1=O)CCCN2C(C)=O (stereo partly drawn) [I-597, Ac-PL3-Asp-Ile-B5-Asp-Glu-Ala-Ala-Phe-Gln-S8-Phe-BztA-Gln-[AzAc]Lys-NH2]	2.39	76	–	–	–
CC(=O)N1CCC[C@]12CC=CCCCC1(CCCC=CCCCOC(=O)N3CC[C@@](C(=O)N[C@@H](Cc4ccsc4)C(=O)N[C@@H](Cc4csc5ccccc45)C(=O)N[C@@H](CCC(N)=O)C(N)=O)(C3)NC(=O)[C@H](Cc3ccccc3)NC(=O)[C@H](Cc3ccccc3)NC(=O)[C@H](C)NC(=O)[C@H](C)NC(=O)[C@H](CC(N)=O)NC(=O)[C@H](CC(=O)O)NC1=O)NC(=O)[C@H](CC(C)(C)C)NC(=O)[C@H](CC(=O)O)NC2=O (stereo partly drawn) [I-855, Ac-PL3-Asp-Npg-B5-Asp-Asn-Ala-Ala-Phe-Phe-PyrS2-3Thi-BztA-Gln-NH2]	–	–	–	2.54	IC50 ([1]; read-out: beta-Catenin FP IC50): 22 nM
CC(=O)N1CCC[C@]12CC=CCCCC1(CCCC=CCCCOC(=O)N3CC[C@@](C(=O)N[C@@H](Cc4ccsc4)C(=O)N[C@@H](Cc4csc5ccccc45)C(=O)N[C@@H](C)C(N)=O)(C3)NC(=O)[C@H](CC(N)=O)NC(=O)[C@H](Cc3ccccc3)NC(=O)[C@H](C)NC(=O)[C@H](C)NC(=O)[C@H](CN(CC(=O)O)CC(F)(F)F)NC(=O)[C@H](CC(=O)O)NC1=O)NC(=O)[C@H](CC(C)(C)C)NC(=O)[C@H](CC(=O)O)NC2=O (stereo partly drawn) [I-944, Ac-PL3-Asp-Npg-B5-Asp-TfeGA-Ala-Ala-Phe-Asn-PyrS2-3Thi-BztA-Ala-NH2]	1.982	–	–	–	IC50 ([1]; fluorescence polarization, beta-catenin, read-out: FP EC50): 761 nM; IC50 ([1]; read-out: beta-Catenin FP IC50): 761 nM
CC[C@H](C)[C@@H]1NC(=O)[C@H](CC(=O)O)NC(=O)[C@]2(CC=CCCCC3(CCCC=CCCCCCC[C@@](C)(C(=O)N[C@@H](Cc4ccccc4)C(=O)N[C@@H](Cc4csc5ccccc45)C(=O)N[C@@H](CCCCNC(=O)CN=[N+]=[N-])C(N)=O)NC(=O)[C@H](CCC(N)=O)NC(=O)[C@H](Cc4ccccc4)NC(=O)[C@H](C)NC(=O)[C@H](C)NC(=O)[C@H](CCC(=O)O)NC(=O)[C@H](CC(=O)O)NC3=O)NC1=O)CCCN2C(C)=O (stereo partly drawn) [I-595, Ac-PL3-Asp-Ile-B5-Asp-Glu-Ala-Ala-Phe-Gln-S8-Phe-BztA-[AzAc]Lys-NH2]	–	–	–	–	chromatographic logD (CHI Log D procedure; pH 7.4): 2.64; IC50 ([1]; FP EC50 (nM)): 57 nM
CC[C@H](C)[C@@H]1NC(=O)[C@H](CC(=O)O)NC(=O)[C@]2(CC=CCCCC3(CCCC=CCCCCCC[C@@](C)(C(=O)N[C@@H](Cc4ccccc4OC)C(=O)N[C@@H](Cc4csc5ccccc45)C(=O)N[C@@H](Cc4c[nH]cn4)C(N)=O)NC(=O)[C@H](CC(N)=O)NC(=O)[C@H](Cc4ccccc4)NC(=O)[C@H](C)NC(=O)[C@H](C)NC(=O)[C@H](CC(=O)O)NC(=O)[C@H](CC(=O)O)NC3=O)NC1=O)CCCN2C(C)=O (stereo partly drawn) [I-553, Ac-PL3-Asp-Ile-B5-Asp-Asp-Ala-Ala-Phe-Asn-S8-2OMeF-BztA-His-NH2]	2.398	61	61	–	–
CC(=O)N1CCC[C@]12CC=CCCCC1(CCCC=CCCCCCC[C@@](C)(C(=O)N[C@@H](Cc3cc(F)cc(F)c3)C(=O)N[C@@H](Cc3csc4ccccc34)C(=O)N[C@@H](CCC(N)=O)C(N)=O)NC(=O)[C@H](C(C)C)NC(=O)[C@H](Cc3ccccc3)NC(=O)[C@H](C)NC(=O)[C@H](C)NC(=O)[C@H](CCC(=O)O)NC(=O)[C@H](CC(=O)O)NC1=O)NC(=O)[C@H](C)NC(=O)[C@H](CC(=O)O)NC2=O (stereo partly drawn) [I-394, Ac-PL3-Asp-Ala-B5-Asp-Glu-Ala-Ala-Phe-Val-S8-35FF-BztA-Gln-NH2]	–	–	5000	3.86	–
CC(=O)N1CCC[C@]12CC=CCCCC1(CCCC=CCCCOC(=O)N3CC[C@@](C(=O)N[C@@H](Cc4ccsc4)C(=O)N[C@@H](Cc4csc5ccccc45)C(=O)N[C@@H](CCC(N)=O)C(N)=O)(C3)NC(=O)[C@H](CC(N)=O)NC(=O)[C@H](Cc3ccccc3)NC(=O)[C@H](C)NC(=O)[C@H](C)NC(=O)[C@H](CC(=O)O)NC(=O)[C@H](CC(=O)O)NC1=O)NC(=O)[C@H](CC(C)(C)C)NC(=O)[C@H](CC(=O)O)N(C)C2=O (stereo partly drawn) [I-1160, Ac-PL3-NMeD-Npg-B5-Asp-Asp-Ala-Ala-Phe-Asn-PyrS2-3Thi-BztA-Gln-NH2]	–	–	575	1.41	–

Further lines, with some results ahead:

CHI Log D (CHI Log D procedure; pH 7.4)	IC50 ([1]; read-out: FP EC50) [nM]	IC50 [1, 2] [nM]	chromatographic logD (CHI Log D procedure; pH 7.4, CHI Log D)	Structure (SMILES)	further results
2.506	211	211	–	CC[C@H](C)[C@@H]1NC(=O)[C@H](CC(=O)O)NC(=O)[C@]2(CC=CCCCC3(CCCC=CCCCCCC[C@@](C)(C(=O)N[C@@H](Cc4ccccc4)C(=O)N[C@@H](Cc4csc5ccccc45)C(=O)N[C@@H](CCC(N)=O)C(N)=O)NC(=O)[C@H](CCC(N)=O)NC(=O)[C@H](Cc4ccccc4)NC(=O)[C@H](C)NC(=O)[C@H](C)NC(=O)[C@H](CN(CC)CC(=O)O)NC(=O)[C@H](CC(=O)O)NC3=O)NC1=O)CCCN2C(C)=O (stereo partly drawn) [I-608, Ac-PL3-Asp-Ile-B5-Asp-EtGa-Ala-Ala-Phe-Gln-S8-Phe-BztA-Gln-NH2]	logD (CHI Log D procedure; pH 7.4): 2.5; IC50 ([1]; read-out: bCat FP IC50): 211 nM
–	–	195	1.99	CC(=O)N1CCC[C@]12CC=CCCCC1(CCCC=CCCCCCC[C@@](C)(C(=O)N[C@@H](Cc3ccccc3)C(=O)N[C@@H](Cc3csc4ccccc34)C(=O)N[C@@H](CCC(N)=O)C(N)=O)NC(=O)[C@H](CC(N)=O)NC(=O)[C@H](Cc3ccco3)NC(=O)[C@H](C)NC(=O)[C@H](C)NC(=O)[C@H](CCC(=O)O)NC(=O)[C@H](CC(=O)O)NC1=O)NC(=O)[C@H](C)NC(=O)[C@H](CC(=O)O)NC2=O (stereo partly drawn) [I-460, Ac-PL3-Asp-Ala-B5-Asp-Glu-Ala-Ala-2FurA-Asn-S8-Phe-BztA-Gln-NH2]	–
2.666	115	–	–	CC(=O)N1CCC[C@]12CC=CCCCC1(CCCC=CCCCCCC[C@@](C)(C(=O)N[C@@H](Cc3ccccc3)C(=O)N[C@@H](Cc3csc4ccccc34)C(=O)N[C@@H](C(N)=O)[C@H](C)O)NC(=O)[C@H](CC(N)=O)NC(=O)[C@H](Cc3ccccc3)NC(=O)[C@H](C)NC(=O)[C@H](C)NC(=O)[C@H](CCC(=O)O)NC(=O)[C@H](CC(=O)O)NC1=O)NC(=O)[C@H](CC(C)C)NC(=O)[C@H](CC(=O)O)NC2=O (stereo partly drawn) [I-754, Ac-PL3-Asp-Leu-B5-Asp-Glu-Ala-Ala-Phe-Asn-S8-Phe-BztA-dThr-NH2]	IC50 ([1]; read-out: beta-Catenin FP IC50): 115 nM
2.064	73	73	–	CC[C@@H]1NC(=O)[C@H](CC(=O)O)NC(=O)[C@]2(CC=CCCCC3(CCCC=CCCCCCC[C@@](C)(C(=O)N[C@@H](Cc4ccccc4)C(=O)N[C@@H](Cc4csc5ccccc45)C(=O)N[C@@H](CCC(N)=O)C(N)=O)NC(=O)[C@H](CC(N)=O)NC(=O)[C@H](Cc4ccccc4)NC(=O)[C@H](C)NC(=O)[C@H](C)NC(=O)[C@H](CC(=O)O)NC(=O)[C@H](CC(=O)O)NC3=O)NC1=O)CCCN2C(C)=O (stereo partly drawn) [I-572, Ac-PL3-Asp-Abu-B5-Asp-Asp-Ala-Ala-Phe-Asn-S8-Phe-BztA-Gln-NH2]	–
2.175	76	76	–	CC(=O)N1CCC[C@]12CC=CCCCC1(CCCC=CCCCCCC[C@@](C)(C(=O)N[C@@H](Cc3ccccc3)C(=O)N[C@@H](Cc3csc4ccccc34)C(=O)N[C@@H](CCC(N)=O)C(N)=O)NC(=O)[C@H](CC(N)=O)NC(=O)[C@H](Cc3ccccc3)NC(=O)[C@H](C)NC(=O)[C@H](C)NC(=O)[C@H](CC(=O)O)NC(=O)[C@H](CC(=O)O)NC1=O)NC(=O)[C@H](C(C)C)NC(=O)[C@H](CC(=O)O)NC2=O (stereo partly drawn) [I-566, Ac-PL3-Asp-Val-B5-Asp-Asp-Ala-Ala-Phe-Asn-S8-Phe-BztA-Gln-NH2]	–
